Like-named read-outs stand apart in the source and are kept apart here.

Common to all, as to format: cell-based
In experiment [1] the test system is HeLa (cervical cancer). Put plainly: Antiproliferative activity (CCK-8 cell viability), HeLa. As to conditions: Homo sapiens, 72 h, read-out: Antiproliferative activity in cancerous cells, HELA (inhibition of cell growth); for inhibition at 3.3 µM: Compound concentration: 3.3 μM; for inhibition at 10 µM: Compound concentration: 10 μM; for inhibition at 30 µM: Compound concentration: 30 μM. On the procedure:
(§1) The antiproliferative activity of a compound was determined in the following cell lines: MDA-MB-231 (breast cancer), HepG2 (liver cancer), SW480 (colon cancer), B16F10 (malignant melanoma), A431 (epidermoid carcinoma), A549 (lung adenocarcinoma), and HeLa (cervical cancer). MDA-MB-231, HepG2, SW480, B16F10, and A431 cells were cultured in Dulbecco's modified Eagle's medium (DMEM) containing 10% fetal bovine serum (FBS). HeLa cells were cultured in MEM/EBSS (MEM) containing 10% FBS. A549 cells were maintained in Kaighn's modification of Ham's F-12 medium containing 10% FBS. A Cell Counting Kit-8 (CCK-8) was used to measure the cell viability of different cells following treatment with the compound.
(§2) Briefly cells were seeded in a 96-well plate at a density of 2,000-5,000 cells/well. Following attachment, the cells were treated with the compound in media at a compound concentration of 3.3 μM, 10 μM, or 30 μM. After the cells were incubated at 37° C. for 72 h, a CCK-8 solution (10 μL) was added to each well. After incubation at 37° C. for 4 h, the absorbance value of each well was determined using a multi-well plate reader at 450 nm. The wells treated with DMSO were taken as a vehicle control. Data were also obtained similarly for all the replicates and the percentage of cell viability was determined with respect to the DMSO-treated cells. The results are summarized in Tables 2-4, wherein A represents no less than […] of cell growth; B represents no less than 30% but less than 50% inhibition of cell growth; and C represents less than 30% inhibition of cell growth.

Experiment [2] concerns B16F10 (malignant melanoma). Put plainly: Antiproliferative activity (CCK-8 cell viability), B16F10. As to conditions: Mus musculus, 72 h, read-out: Antiproliferative activity in cancerous cells, B16F10 (inhibition of cell growth); for inhibition at 3.3 µM: B16-F10, Compound concentration: 3.3 μM; for inhibition at 10 µM: B16-F10, Compound concentration: 10 μM; for inhibition at 30 µM: B16-F10, Compound concentration: 30 μM. On the procedure: as §1, §2

Experiment [3] has as its system MDA-MB-231 (breast cancer). Put plainly: Antiproliferative activity (CCK-8 cell viability), MDA-MB-231. To be noted: Homo sapiens, 72 h; for inhibition at 3.3 µM: Compound concentration: 3.3 μM; for inhibition at 10 µM: Compound concentration: 10 μM; for inhibition at 30 µM: Compound concentration: 30 μM. On the procedure:
as §1, §2

For experiment [4], the system named is A431 (epidermoid carcinoma). Put plainly: Antiproliferative activity (CCK-8 cell viability), A431. To be noted: Homo sapiens, 72 h, read-out: Antiproliferative activity in cancerous cells, A431 (inhibition of cell growth); for inhibition at 3.3 µM: A-431, Compound concentration: 3.3 μM; for inhibition at 10 µM: A-431, Compound concentration: 10 μM; for inhibition at 30 µM: A-431, Compound concentration: 30 μM. On the procedure:
as §1, §2

In experiment [5] the test system is HepG2 (liver cancer). Put plainly: Antiproliferative activity (CCK-8 cell viability), HepG2. As to conditions: Homo sapiens, 72 h, read-out: Antiproliferative activity in cancerous cells, HepG2 (inhibition of cell growth); for inhibition at 3.3 µM: Compound concentration: 3.3 μM; for inhibition at 10 µM: Compound concentration: 10 μM; for inhibition at 30 µM: Compound concentration: 30 μM. As for the experimental part:
as §1, §2

The subject of experiment [6] is SW480 (colon cancer). Put plainly: Antiproliferative activity (CCK-8 cell viability), SW480. As to conditions: Homo sapiens, 72 h, read-out: Antiproliferative activity in cancerous cells, SW480 (inhibition of cell growth); for inhibition at 3.3 µM: Compound concentration: 3.3 μM; for inhibition at 10 µM: Compound concentration: 10 μM; for inhibition at 30 µM: Compound concentration: 30 μM. On the procedure:
as §1, §2

Experiment [7] relates to A549 (lung adenocarcinoma). Put plainly: Antiproliferative activity (CCK-8 cell viability), A549. As to conditions: Homo sapiens, 72 h, read-out: Antiproliferative activity in cancerous cells, A549 (inhibition of cell growth); for inhibition at 3.3 µM: Compound concentration: 3.3 μM; for inhibition at 10 µM: Compound concentration: 10 μM; for inhibition at 30 µM: Compound concentration: 30 μM. On the procedure:
as §1, §2

[8] abbreviates: read-out: Antiproliferative activity in cancerous cells, MDA-MB-231 (inhibition of cell growth).
Where [9] appears, read: read-out: Antiproliferative activity in cancerous cells, MDA-MB-231.

For the molecule `CC1=C(CC(=O)O)c2cc(F)ccc2/C1=C/c1ccc(-c2ccc(Cl)cc2)cc1` [E22, (E)-2-(1-((4′-Chloro-[1,1′-biphenyl]-4-yl)methylene)-5-fluoro-2-methyl-1H-inden-3-yl)acetic acid], the inhibition at 3.3 µM in experiment [1] is 30 to 50%; in experiment [2], at least 50%; in experiment [3] (setting [8]), at least 50%; in experiment [4], 30 to 50%; in experiment [5], at least 50%; in experiment [6] it was 30 to 50%. For the same molecule, the inhibition at 3.3 µM in experiment [7] was in the range of 30 to 50%. Also, the inhibition at 10 µM in experiment [1], in experiment [2], in experiment [3] (setting [8]), in experiment [4], in experiment [5] and in experiment [6] was at least 50% throughout. Besides, the inhibition at 10 µM in experiment [7] was at least 50%. Moreover, the inhibition at 30 µM in experiment [1], in experiment [2], in experiment [3] (setting [8]), in experiment [4], in experiment [5] and in experiment [6] was at least 50% in each case. Moreover, in experiment [7], the inhibition at 30 µM was at least 50%.
With `CC1=C(CC(=O)O)c2cc(F)ccc2/C1=C\c1ccc(Sc2ccc(F)cc2)cc1` [C47, (Z)-2-(5-Fluoro-1-(4-((4-fluorophenyl)thio)benzylidene)-2-methyl-1H-inden-3-yl)acetic acid], the inhibition at 3.3 µM was under 30% in experiment [1]; under 30% in experiment [2]; under 30% in experiment [3] (setting [8]); 30 to 50% in experiment [4]; under 30% in experiment [5]; under 30% in experiment [6]. The inhibition at 3.3 µM in experiment [7] was under 30%. For the same molecule, the inhibition at 10 µM was at least 50% in experiment [1]; at least 50% in experiment [2]; under 30% in experiment [3] (setting [8]); at least 50% in experiment [4]; at least 50% in experiment [5]; at least 50% in experiment [6]. Besides, the inhibition at 10 µM in experiment [7] is at least 50%. The inhibition at 30 µM in experiment [3] (setting [9]) was under 30%.
Regarding `CC1=C(CC(=O)O)c2cc(Cl)ccc2/C1=C\c1cccc(Oc2ccc(Cl)cc2)c1` [C93, (Z)-2-(5-Chloro-1-(3-(4-chlorophenoxy)benzylidene)-2-methyl-1H-inden-3-yl)acetic acid], the inhibition at 3.3 µM in experiment [1] is under 30%; in experiment [2], at least 50%; in experiment [3] (setting [8]) it was under 30%; in experiment [4], at least 50%; in experiment [5] it was at least 50%; in experiment [6], under 30%. Also, the inhibition at 3.3 µM in experiment [7] is under 30%. Moreover, the inhibition at 10 µM in experiment [1] is at least 50%; in experiment [2], at least 50%; in experiment [3] (setting [8]), at least 50%; in experiment [4], at least 50%; in experiment [5] it was at least 50%; in experiment [6], 30 to 50%. For the same molecule, the inhibition at 10 µM in experiment [7] is at least 50%. In addition, the inhibition at 30 µM in experiment [3] (setting [9]) is under 30%.
Take `CC1=C(CC(=O)O)c2cc(F)ccc2/C1=C/c1ccc(Oc2ccc(Cl)cc2F)cc1` [E24, (E)-2-(1-(4-(4-Chloro-2-Fluorophenoxy)benzylidene)-5-fluoro-2-methyl-1H-inden-3-yl)acetic acid]: the inhibition at 3.3 µM is under 30% in experiment [1]; at least 50% in experiment [2]; at least 50% in experiment [3] (setting [8]); at least 50% in experiment [4]; under 30% in experiment [5]; under 30% in experiment [6]. Further, in experiment [7], the inhibition at 3.3 µM was under 30%. The inhibition at 10 µM in experiment [1], in experiment [2], in experiment [3] (setting [8]), in experiment [4], in experiment [5] and in experiment [6] was at least 50% each time. The inhibition at 10 µM in experiment [7] lay in the range of 30 to 50%. The inhibition at 30 µM in experiment [1], in experiment [2], in experiment [3] (setting [8]), in experiment [4], in experiment [5] and in experiment [6] was at least 50% in each case. For the same molecule, the inhibition at 30 µM in experiment [7] was at least 50%.
`CC1=C(CC(=O)O)c2cc(F)ccc2/C1=C\c1ccc(Oc2ccc(Cl)cc2)cc1Cl` [C59, (Z)-2-(1-(2-Chloro-4-(4-chlorophenoxy)benzylidene)-5-fluoro-2-methyl-1H-inden-3-yl)acetic acid]: the inhibition at 3.3 µM in experiment [1] was at least 50%; in experiment [2], under 30%; in experiment [3] (setting [8]), under 30%; in experiment [4], at least 50%; in experiment [5] it was at least 50%; in experiment [6], under 30%. For the same molecule, the inhibition at 3.3 µM in experiment [7] lay in the range of 30 to 50%. Further, the inhibition at 10 µM is at least 50% in experiment [1]; at least 50% in experiment [2]; under 30% in experiment [3] (setting [8]); at least 50% in experiment [4]; at least 50% in experiment [5]; at least 50% in experiment [6]. Besides, the inhibition at 10 µM in experiment [7] was at least 50%.
`COc1ccc(CCCc2ccc(/C=C3/C(C)=C(CC(=O)O)c4cc(F)ccc43)cc2)cc1` [B126, (Z)-2-(5-Fluoro-1-(4-(3-(4-methoxyphenyl)propyl)benzylidene)-2-methyl-1H-inden-3-yl)acetic acid]: the inhibition at 3.3 µM in experiment [1] is 30 to 50%; in experiment [2], under 30%; in experiment [3] (setting [8]), at least 50%; in experiment [4], under 30%; in experiment [5] it was 30 to 50%; in experiment [6], under 30%. Moreover, in experiment [7], the inhibition at 3.3 µM is under 30%. Also, the inhibition at 10 µM in experiment [1], in experiment [2], in experiment [3] (setting [8]), in experiment [4], in experiment [5] and in experiment [6] was at least 50% each time. Further, in experiment [7], the inhibition at 10 µM was at least 50%.

The record behind these values is patent publication US20260184663A1, “INDENE COMPOUNDS, PHARMACEUTICAL COMPOSITIONS THEREOF, AND THEIR THERAPEUTIC APPLICATIONS” (NucMito Pharmaceuticals co. Ltd., priority 2022, published 2026).
